Test results published in patent publication US5036054A, “Renin inhibitors containing alpha-heteroatom amino acids” (Warner-Lambert Company, priority 1988, dated 1991).

Target: T1, renin (Homo sapiens, UniProt P00797)
T1 sequence (P00797 67-406): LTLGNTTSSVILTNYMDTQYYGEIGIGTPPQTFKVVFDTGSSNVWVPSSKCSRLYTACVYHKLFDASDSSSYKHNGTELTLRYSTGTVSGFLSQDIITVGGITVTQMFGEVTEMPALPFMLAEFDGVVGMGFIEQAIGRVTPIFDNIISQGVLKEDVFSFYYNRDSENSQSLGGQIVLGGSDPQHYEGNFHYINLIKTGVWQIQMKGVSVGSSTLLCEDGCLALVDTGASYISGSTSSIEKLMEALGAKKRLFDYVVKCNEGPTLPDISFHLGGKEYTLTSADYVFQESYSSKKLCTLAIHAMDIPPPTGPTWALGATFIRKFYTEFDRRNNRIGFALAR
Assay: in vitro renin inhibitory activity, radioimmunoassay for angiotensin I
Assay type: biochemical
Settings: 10^-6 molar test compound; renin incubated 2 hours at 37° with substrate angiotensinogen; angiotensin I by radioimmunoassay
Protocol: The effectiveness of the aforementioned compounds is determined by a test for in vitro renin inhibitory activity. This activity is determined by a standard radioimmunoassay for angiotensin I. In this assay the enzyme, renin, incubated for 2 hours at 37° in the presense of a substrate, angiotensinogen, generates the product, angiotensin I. Test compounds are added to the incubation mixture. Relative activity is reported as the percent inhibition at 10^-6 molar concentration.

Compound	Activity % Inhibition @ 10^-6 M
CCOC(=O)NC(NC(=O)C(Cc1cccc2ccccc12)Cc1cccc2ccccc12)C(=O)NC(CC(C)C)C(O)CC(=O)NCC(C)CC (centres unmarked) [DNMA-NHCH(NHCO2 Et)CO-STA-NHCH2 CH(CH3)CH2 CH3]	40%
DNMA-NHCH(NH2)CO-STA-NHCH2 CH(CH3)CH2 CH3 [DNMANHCH(NH2)COSTANHCH2 CH(CH3)CH2 CH3 (slow isomer)]	54%
CCC(C)CNC(=O)CC(O)C(CC(C)C)NC(=O)C(NC(=O)C(Cc1cccc2ccccc12)Cc1cccc2ccccc12)N(C)C (single isomer, unassigned) [DNMANHCH(N(CH3)2)COSTANHCH2 CH(CH3)CH2 CH3 (slow isomer), DNMA-NHCH(N(CH3)2 CO-STA-NHCH2 CH(CH3)CH2 CH3]	55%
CCC(C)CNC(=O)CC(O)C(CC(C)C)NC(=O)C(NC(=O)C(Cc1cccc2ccccc12)Cc1cccc2ccccc12)SC (centres unmarked) [DNMANHCH(SCH3)COSTANHCH2 CH(CH3)CH2 CH3, DNMA-NHCH(SCH3)CO-STA-NHCH2 CH(CH3)CH2 CH3]	86%
CCC(C)CNC(=O)CC(O)C(CC(C)C)NC(=O)C(NC(C)=O)NC(=O)C(Cc1cccc2ccccc12)Cc1cccc2ccccc12 (centres unmarked) [DNMA-NHCH(NHCOCH3)CO-STA-NHCH2 CH(CH3)CH2 CH3]	39%
CCC(C)CNC(=O)CC(O)C(CC(C)C)NC(=O)C(NC(=O)C(Cc1cccc2ccccc12)Cc1cccc2ccccc12)[S+](C)[O-] (centres unmarked) [DNMANHCH(SOCH3)COSTANHCH2 CH(CH3)CH2 CH3, DNMA-NHCH(SOCH3)CO-STA-NHCH2 CH(CH3)CH2 CH3]	35%
DNMA-NHCH(OC2 H5)CO-STA-NHCH2 CH(CH3)CH2 CH3 [DNMANHCH(OC2 H5)COSTANHCH2 CH(CH3)CH2 CH3 (slow isomer)]	15%
CCC(C)CNC(=O)CC(O)C(CC(C)C)NC(=O)C(NC(=O)C(Cc1cccc2ccccc12)Cc1cccc2ccccc12)SC(C)C (single isomer, unassigned) [DNMANHCH(SCH(CH3)2)COSTANHCH2 CH(CH3)CH2 CH3 (slow isomer), DNMA-NHCH(SCH(CH3)2)CO-STA-NHCH2 CH(CH3)CH2 CH3]	26%
DNMA-NHCH(NHC2 H5)CO-STA-NHCH2 CH(CH3) CH2 CH3 [DNMANHCH(NHC2 H5)COSTANHCH2 CH(CH3)CH2 CH3 (slow isomer)]	71%
CCOC(NC(=O)C(Cc1cccc2ccccc12)Cc1cccc2ccccc12)C(=O)N[C@@H](CC(C)C)[C@@H](O)CC(=O)NCC(C)CC (single isomer, unassigned) [DNMANHCH(OC2 H5)COSTANHCH2 CH(CH3)CH2 CH3 (fast isomer), DNMA-NHCH(OC2 H5)CO-STA-NHCH2 CH(CH3)CH2 CH3]	100%
CCC(C)CNC(=O)C[C@H](O)[C@H](CC(C)C)NC(=O)C(NC(=O)C(Cc1cccc2ccccc12)Cc1cccc2ccccc12)OC (some centres unmarked) [DNMANHCH(OCH3)COSTANHCH2 CH(CH3)CH2 CH3, DNMA-NHCH(OCH3)CO-STA-NHCH2 CH(CH3)CH2 CH3]	90%
CCC(C)CNC(=O)CC(O)C(CC(C)C)NC(=O)C(NC(=O)C(Cc1cccc2ccccc12)Cc1cccc2ccccc12)Nc1ccccc1 (centres unmarked) [DNMANHCH(NHPh)COSTANHCH2 CH(CH3)CH2 CH3, DNMA-NHCH(NHPh)CO-STA-NHCH2 CH(CH3)CH2 CH3]	56%
DNMA-NHCH(NH(CH2)3 NHCSNHCH3)CO-STA-NHCH2 CH(CH3)CH2 CH3	36%
CCC(C)CNC(=O)CC(O)C(CC(C)C)NC(=O)C(NC(=O)C(Cc1cccc2ccccc12)Cc1cccc2ccccc12)Sc1ccccc1 (centres unmarked) [DNMANHCH(SPh)COSTANHCH2 CH(CH3)CH2 CH3, DNMA-NHCH(SPh)CO-STA-NHCH2 CH(CH3) CH2 CH3]	40%
CCC(C)CNC(=O)CC(O)C(CC(C)C)NC(=O)C(N)NC(=O)C(Cc1cccc2ccccc12)Cc1cccc2ccccc12 (single isomer, unassigned) [DNMANHCH(NH2)COSTANHCH2 CH(CH3)CH2 CH3 (fast isomer), DNMA-NHCH(NH2)CO-STA-NHCH2 CH(CH3)CH2 CH3]	9%
CCC(C)CNC(=O)CC(O)C(CC(C)C)NC(=O)C(NC(=O)C(Cc1cccc2ccccc12)Cc1cccc2ccccc12)SC(C)C (single isomer, unassigned) [DNMANHCH(SCH(CH3)2)COSTANHCH2 CH(CH3)CH2 CH3 (fast isomer), DNMA-NHCH(SCH(CH3)2)CO-STA-NHCH2 CH(CH3)CH2 CH3]	87%
DNMA-NHCH(NHCH(CH3)2)CO-STA-NHCH2 CH(CH3)CH2 CH3 [DNMA-NHCH(NHCH(CH3)2)COSTANHCH2 CH(CH3)CH2 CH3 (slow isomer)]	60%
